Here are results for one compound from paper PMC12044326 (Clinical Pharmacology in Drug Development, 2025).

The data set can be described thus: in vitro. The format is in vitro ADME. The text has this: […]. […] […]. […] […]

Each structure is given as a SMILES string.

With `O=C(c1cccnc1-c1ccncc1)N1CCC(O)(Cc2ccccc2)CC1` [Soticlestat], the Main binding protein entry is given as “AAG” and the fraction unbound was 0.066.

In general, fraction unbound refers to the share of the substance not bound to proteins or other matrix. A higher fraction unbound goes with weak binding.
